According to the supplement of paper PMC10702517:
± gives the standard deviation.

Experiment: chemical recovery from spiked human plasma; higher = better extraction
Conditions: pooled human plasma
[1] = extraction method: PES+SPE (3 d PDMS equilibration then HLB SPE)
[2] = extraction method: SPE only (HLB 96-well)
[3] = extraction method: SPE only (HLB 96-well), PES comparison experiment
[4] = extraction method: solvent precipitation (ACN + hexane)

| chemical recovery [1] | chemical recovery [2] | chemical recovery [3] | chemical recovery [4] | Structure (SMILES) |
| --- | --- | --- | --- | --- |
| 21.8 ± 8.2% | 5.38 ± 9.3% | 38.3 ± 6.6% |  | Cc1cccc(C)c1NC(=O)CS(=O)(=O)O |
|  |  |  | 5.44 ± 5.7% | Clc1nc2ccccc2s1 |
|  | 9.27 ± 2.4% |  | 33.1 ± 7.1% | COc1ccc(C(c2ccc(OC)cc2)C(Cl)Cl)cc1 [1,1-Dichloro-2,2-bis(4-methoxyphenyl)ethan] |
| 7.12 ± 0.96% | 10.7 ± 1.4% | 1.19 ± 2.4% | 5.44 ± 4.6% | O=c1[nH]sc2ccccc12 [1,2-Benzisothiazolinone] |
| 20.9 ± 2.6% | 34.2 ± 2.8% |  | 64.5 ± 1.7% | Cc1ccccc1NC(=N)Nc1ccccc1C [1,3-Di-o-tolylguanidine] |
| 65.9 ± 7.5% | 46.9 ± 3.4% |  | 84.4 ± 7.3% | O=C(Nc1ccccc1)Nc1ccccc1 [1,3-Diphenylurea] |
| 15 ± 1.5% | 52.7 ± 6.3% |  |  | Nc1ccc2nc3c(N)cccc3nc2c1 [1,7-Diaminophenazine] |
| 72.3 ± 13% | 54.3 ± 10% |  | 59.8 ± 6.9% | Cn1cnc2c1c(=O)n(CCCC(=O)O)c(=O)n2C [1-(3-carboxypropyl)-3,7-dimethylxanthine] |
| 70.3 ± 10% | 57.4 ± 16% |  | 79.9 ± 4% | O=C(Nc1ccccc1)NC1CCCCC1 [1-Cyclohexyl-3-phenylurea] |
| 42 ± 5.2% | 31.5 ± 2.9% |  | 61.5 ± 1.9% | CCCCCCCCCCS(=O)(=O)O [1-Decanesulfonic-acid] |
|  | 25.6 ± 3% |  | 52.1 ± 2.3% | CCCCCCCCCCCCS(=O)(=O)O [1-Dodecanesulfonic-acid] |
|  | 0.856 ± 0.42% |  |  | CCn1cc[n+](C)c1 [1-Ethyl-3-methyl-imidazolium] |
| 31.6 ± 3.8% | 30.6 ± 4.2% |  | 74.2 ± 8.3% | CCCCCCS(=O)(=O)O [1-Hexanesulfonic-acid] |
|  | 2.62 ± 2% |  |  | Cc1cccc2ccccc12 [1-Methylnaphthalene] |
|  | 3.46 ± 0.94% |  | 34 ± 4% | Cc1ccc2ccc3cccc4ccc1c2c34 [1-Methylpyrene] |
|  |  | 35.9 ± 5.8% |  | O=S(=O)(O)c1cccc2c(O)cccc12 [1-Naphthol-5-sulfonic acid] |
| 50 ± 4.4% | 51.4 ± 4.7% |  |  | O=C(c1ccc(O)cc1O)c1ccc(O)cc1O [2,2',4,4'-Tetrahydroxybenzophenone] |
|  | 7.83 ± 3.9% |  |  | Cc1cc(Cc2cc(C)cc(C(C)(C)C)c2O)c(O)c(C(C)(C)C)c1 [2,2'-Methylenebis(6-tert-butyl-p-cresol)] |
|  | 3.63 ± 3.5% |  | 64.9 ± 8.7% | CCc1cc(Cc2cc(CC)cc(C(C)(C)C)c2O)c(O)c(C(C)(C)C)c1 [2,2'-Methylenebis(ethyl-6-tert-butylphenol)] |
| 83.9 ± 17% | 17 ± 6.2% |  | 103 ± 16% | Cc1c(Br)c(Br)c(C)c(Br)c1Br [2,3,5,6-Tetrabromo-p-xylene] |
|  | 0.62 ± 1.1% |  |  | Cc1ccc(C)c(O)c1C [2,3,6-Trimethylphenol] |

| chemical recovery [1] | chemical recovery [2] | chemical recovery [3] | chemical recovery [4] | Structure (SMILES) |
| --- | --- | --- | --- | --- |
| 53.8 ± 3.7% | 42.1 ± 2.9% |  | 59.2 ± 3.6% | O=C(c1ccccc1)c1ccc(O)cc1O [2,4-Dihydroxybenzophenone] |
|  | 63.3 ± 4.5% |  |  | NC(=O)c1c(Cl)cccc1Cl [2,6-Dichlorobenzamide] |
|  |  | 16.8 ± 6.9% |  | CC(C)c1ccc2cc(C(C)C)ccc2c1 [2,6-Diisopropylnaphthalene] |
|  | 60.6 ± 17% |  | 72.8 ± 11% | O=S(=O)(O)c1ccc2ccc(S(=O)(=O)O)cc2c1 [2,7-Naphthalenedisulfonic acid] |
| 11.8 ± 0.64% | 38.5 ± 14% |  | 53.2 ± 6.7% | Nc1ccc2nc3ccc(N)cc3nc2c1 [2,8-Diaminophenazine] |
| 7.13 ± 2.3% | 6.88 ± 5.6% |  |  | COCCOCCOCCO [2-(2-(2-Methoxyethoxy)ethoxy)ethanol] |
| 59.8 ± 2.4% | 0.402 ± 0.15% |  | 23.4 ± 1% | c1ccc2cc(-c3cc4ccccc4s3)ccc2c1 [2-(2-Naphthalenyl)benzothiophene] |
| 0.697 ± 0.13% | 2.37 ± 1.9% |  | 72.2 ± 2.7% | O=S(=O)(O)CCNC1CCCCC1 [2-(Cyclohexylamino)-ethansulfonic-acid] |
|  |  | 1.9 ± 2.2% |  | NCCN1CCNCC1 [2-(Piperazin-1-yl)ethanamine] |
|  | 44.1 ± 2.3% |  | 18.4 ± 10% | N#CSCSc1nc2ccccc2s1 [2-(Thiocyanomethylthio)benzothiazole] |
|  |  | 80.9 ± 10% |  | CC(=O)c1ccc2ccccc2c1 [2-Acetonaphthone] |
|  | 2.25 ± 2.4% |  |  | Cc1cc(C)nc(N)n1 [2-Amino-4,6-dimethylpyrimidine] |
|  | 18.8 ± 4.5% |  | 68.3 ± 4.5% | Nc1nc2ccccc2[nH]1 [2-Aminobenzimidazole] |
| 52.1 ± 4.4% | 40.6 ± 5% |  |  | Oc1ccc2c(c1)[nH]c1ccccc12 [2-Hydroxycarbazole] |
| 45.2 ± 5.9% | 34.6 ± 4% | 44.3 ± 8.5% | 77.2 ± 3.2% | Cc1cc(=O)nc(C(C)C)[nH]1 [2-Isopropyl-6-methyl-pyrimidin-4-ol] |
|  |  |  | 139 ± 8.9% | c1ccc2sc(SN3CCOCC3)nc2c1 [2-Morpholinothiobenzothiazole] |
|  |  |  | 39.1 ± 5.5% | O=C1Cc2ccccc2N1 [2-Oxindole] |
|  |  |  | 56.3 ± 2.7% | N[C@@H](Cc1cc(I)c(Oc2ccc(O)c(I)c2)c(I)c1)C(=O)O [3,3',5-Triiodo-L-thyronine] |
|  | 20.1 ± 4.9% |  | 42.1 ± 2.7% | CC(=O)c1cc(C(C)(C)C)c(O)c(C(C)(C)C)c1 [3,5-Di-tert-butyl-4'-hydroxyacetophenone] |
| 36.5 ± 13% | 2.62 ± 0.48% |  | 71.5 ± 5% | Cc1ccc2ccc3ccc(C)cc3c2c1 [3,6-dimethylphenanthrene] |
| 28.9 ± 9.2% | 35.4 ± 2.2% |  | 61.2 ± 1.1% | CN(C)C(=O)NC1CCCCC1 [3-Cyclohexyl-1,1-dimethylurea] |

| Structure (SMILES) | chemical recovery [1] | chemical recovery [2] | chemical recovery [3] | chemical recovery [4] |
| --- | --- | --- | --- | --- |
| CC(c1ccc(O)cc1)(c1ccc(O)cc1)c1ccc(O)cc1 [1,1,1-Tris(4-hydroxyphenyl)ethane] | 59.9 ± 5% | 43.2 ± 4.1% |  | 43.3 ± 2.1% |
| N=C(Nc1ccccc1)Nc1ccccc1 [1,3-Diphenylguanidine] | 22.6 ± 3% | 34.5 ± 2.5% | 48.7 ± 4.8% | 59.5 ± 2.6% |
| Cc1cc2cccc(C)c2cc1C [1,6,7-Trimethylnaphthalene] |  | 2.3 ± 4% |  |  |
| Cc1cccc2cc3ccccc3cc12 [1-Methylanthracene] |  | 4.65 ± 1.1% |  |  |
| Oc1ccccc1-c1ccccc1O [2,2'-Dihydroxybiphenyl] | 46.1 ± 1.6% | 43.3 ± 2.8% |  |  |
| Nc1ccc(Cc2ccc(N)c(Cl)c2)cc1Cl [2,2'-dichloro-4,4'-methylenedianiline] | 28.7 ± 6.4% | 47 ± 13% |  | 71.3 ± 5.2% |
| Cc1cc2ccccc2cc1C [2,3-Dimethylnaphthalene] |  | 0.0627 ± 0.11% |  |  |
| C[N+](C)(C)CC1CO1 (configuration not stated) [2,3-Epoxypropyltrimethylammonium] | 0.728 ± 0.46% | 0.76 ± 0.94% |  |  |
| Oc1c(Br)cc(Br)cc1Br [2,4,6-Tribromophenol] | 46.9 ± 0.63% | 35 ± 8.7% |  | 55.2 ± 4.1% |
| O=C(O)CCCOc1ccc(Cl)cc1Cl [2,4-DB] | 66.6 ± 7.5% | 50.7 ± 2.8% |  | 61.5 ± 6% |
| O=C(O)COc1ccc(Cl)cc1Cl [2,4-Dichlorophenoxyacetic acid] |  |  | 56.3 ± 5.5% | 73.2 ± 6.1% |
| Cc1ccc2cc(C)ccc2c1 [2,6-Dimethylnaphthalene] |  | 0.083 ± 0.072% |  |  |
| Cc1cccc(C)c1N [2,6-Xylidine] |  | 7.08 ± 5% |  | 48 ± 3.5% |
| Cn1c(N)nc2ncc(-c3ccccc3)cc21 [2-Amino-1-methyl-6-phenylimidazo[4,5-b]pyridine (PhIP)] | 38.9 ± 2.9% | 39.3 ± 2.8% | 47 ± 5.8% | 72.4 ± 2.8% |
| Cn1c(N)nc2ncc(-c3ccccc3)cc21 [2-Amino-1-methyl-6-phenylimidazo[4,5-b]pyridine-(PhIP)] | 49 ± 2.1% | 45.2 ± 2.2% |  | 70.9 ± 3.6% |
| Cc1cnc2ccc3c(nc(N)n3C)c2n1 [2-Amino-3,8-dimethylimidazo-[4,5-f]quinoxaline (MeIQx)] | 48.7 ± 6% | 49.1 ± 2.6% |  | 72.4 ± 3.3% |
| Cn1c(N)nc2c3cccnc3ccc21 [2-Amino-3-methyl-imidazo[4,5-f]quinoline (IQ)] |  | 11.1 ± 1.8% |  |  |
| Cn1c(N)nc2c3cccnc3ccc21 [2-Amino-3-methyl-imidazo[4,5-f]quinoline-(IQ)] | 27 ± 5.9% | 13.8 ± 2.6% |  | 73.4 ± 2.7% |
| Nc1ccc2c(n1)[nH]c1ccccc12 [2-Amino-9H-pyrido[2,3-b]indole-(AalphaC)] | 17.4 ± 2.8% | 32.5 ± 2.4% |  | 62.4 ± 5.3% |
| CC(Cl)CN(C)C (configuration not stated) [2-Chloropropyldimethylamine] | 0.712 ± 0.094% | 1.1 ± 0.73% |  |  |
| CCCCC(CC)COP(=O)(Oc1ccccc1)Oc1ccccc1 (configuration not stated) [2-Ethylhexyldiphenylphosphate] |  | 38.9 ± 8.9% |  |  |
| NNc1ccccn1 [2-Hydrazinopyridine] | 0.622 ± 0.11% | 9.35 ± 5% |  |  |
| CCNc1nc(NC(C)C)[nH]c(=O)n1 [2-Hydroxyatrazine] | 36.1 ± 4.4% | 29.1 ± 3.5% | 44.3 ± 8.2% | 76.5 ± 3.2% |
| Cc1ccc2cc3ccccc3cc2c1 [2-Methylanthracene] | 51.5 ± 4.5% | 3.56 ± 0.86% |  |  |
| Cc1ccc2ccccc2c1 [2-Methylnaphthalene] |  | 2.91 ± 1.5% |  |  |
| Nc1ccccc1[N+](=O)[O-] [2-Nitroaniline] |  | 25.1 ± 5.2% |  |  |
| Cc1cc(-c2ccc(N)c(C)c2)ccc1N [3,3'-Dimethylbenzidine] |  | 37.1 ± 6.7% | 20.3 ± 2.9% | 61.7 ± 6.9% |
| Oc1cc(Cl)c(Cl)c(Cl)c1 [3,4,5-Trichlorophenol] | 58.9 ± 7.8% | 45 ± 3.1% |  | 70.1 ± 3.9% |
| Oc1ccc(Cl)cc1O [3,4-Dihydroxy-chlorobenzene] | 5.54 ± 1.6% | 39.4 ± 4.7% |  |  |
| Cc1ccc(N)cc1Cl [3-Chloro-4-methylaniline] | 56.7 ± 3.6% | 45.3 ± 2.8% |  | 76.7 ± 4.1% |
